Results reported in patent US20090111781A1, “Use of Cymipristone Type Compounds in Aids Treatment” (SHANGHAI THREE-ALLIANCE BIOTECHNOLOGIES CO., LTD., priority 2005, published 2009).
In brackets after ≈: the same amount, converted by molar mass.

Assays:
[1] = MTT toxicity on PBMC infected by HIV-1 AZT-sensitive strain 018a; conditions: human
Description: (§1) Collect cells with curette, infect cells with 10^−2 AZT sensitive (018a) or AZT resistant (018c) virus strain liquid, and adsorb for 2 hours, Wash off unabsorbed virus with 1640 culture medium without serum, prepare cells infected by virus to 1×10^6/ml with culture solution, and inoculate on 96-pore culture plate, 100 μl/pore. […] Set cell control group and virus infected cell control group. Incubate under 37° C. and 5% CO2. On the fourth day (96 hours), pipette out the supernatant liquid and store under −20° C. for determination of HIV-1 P24 antigen titer and calculation of drug inhibitory action. Add MTT staining to cells for determination of cytotoxicity. Determination of cytotoxicity by MTT staining: Add 10 μl of 5 mg/ml MTT stain into each pore, continue to incubate under 37° C., 5% CO2 and saturated humidity for 4 hours. […] Determine the HIV-1 P24 antigen titer according to the operation procedure provided by the HIV-1 P24 antigen reagent kit. Compare the drug-added group with virus control group. […] Calculation method of 50% toxic concentration (CC50), 50% effective concentration (EC50) and selection index (SI): […]

[2] = test system: HIV-1 AZT-sensitive strain 018a P24 antigen; assay: Inhibition of HIV-1 018a P24 antigen in PBMC cell culture; assay type: cell-based; conditions: for EC50: Human immunodeficiency virus 1, PBMC, 2 h, administration after adsorbing 2 hours
Description: (§2) Collect cells with curette, infect cells with 10^−2 AZT sensitive (018a) or AZT resistant (018c) virus strain liquid, and adsorb for 2 hours, Wash off unabsorbed virus with 1640 culture medium without serum, prepare cells infected by virus to 1×10^6/ml with culture solution, and inoculate on 96-pore culture plate, 100 μl/pore. […] Set cell control group and virus infected cell control group. Incubate under 37° C. and 5% CO2. On the fourth day (96 hours), pipette out the supernatant liquid and store under −20° C. for determination of HIV-1 P24 antigen titer and calculation of drug inhibitory action. Add MTT staining to cells for determination of cytotoxicity. Determination of cytotoxicity by MTT staining: Add 10 μl of 5 mg/ml MTT stain into each pore, continue to incubate under 37° C., 5% CO2 and saturated humidity for 4 hours. […] Determine the HIV-1 P24 antigen titer according to the operation procedure provided by the HIV-1 P24 antigen reagent kit. Compare the drug-added group with virus control group. […] Calculation method of 50% toxic concentration (CC50), 50% effective concentration (EC50) and selection index (SI):
(§3) (3) Calculation Method of Selection Index (SI) on HIV-1 P24 Antigen in Cell Culture SI=CC50/EC50

[3] = MTT toxicity on PBMC infected by HIV-1 AZT-resistant strain 018c; conditions: human
Description: as §1

[4] = test system: HIV-1 AZT-resistant strain 018c P24 antigen; assay: Inhibition of HIV-1 018c P24 antigen in PBMC cell culture; assay type: cell-based; conditions: 018c; for EC50: Human immunodeficiency virus 1, PBMC, 2 h, PBMC, administration after adsorbing 2 hours; for SI: SI=CC50/EC50
Description: as §2, §3

[5] = biological target: T1, glucocorticoid receptor of rat hepatic cytoplasm (Rattus norvegicus, UniProt P06536); assay: Competition inhibition of [3H]-dexamethasone binding in rat hepatic cytoplasm; conditions: read-out: Inhibition rate on binding of [3H]-dexamethasone
T1 construct: centrifuge at 175000 g for 1 hour, and take out the supernatant liquid as reserve; from tissue; host or cells: liver cytosol (175000 g supernatant) of adrenalectomised female SD rats
T1 sequence (P06536 1-795): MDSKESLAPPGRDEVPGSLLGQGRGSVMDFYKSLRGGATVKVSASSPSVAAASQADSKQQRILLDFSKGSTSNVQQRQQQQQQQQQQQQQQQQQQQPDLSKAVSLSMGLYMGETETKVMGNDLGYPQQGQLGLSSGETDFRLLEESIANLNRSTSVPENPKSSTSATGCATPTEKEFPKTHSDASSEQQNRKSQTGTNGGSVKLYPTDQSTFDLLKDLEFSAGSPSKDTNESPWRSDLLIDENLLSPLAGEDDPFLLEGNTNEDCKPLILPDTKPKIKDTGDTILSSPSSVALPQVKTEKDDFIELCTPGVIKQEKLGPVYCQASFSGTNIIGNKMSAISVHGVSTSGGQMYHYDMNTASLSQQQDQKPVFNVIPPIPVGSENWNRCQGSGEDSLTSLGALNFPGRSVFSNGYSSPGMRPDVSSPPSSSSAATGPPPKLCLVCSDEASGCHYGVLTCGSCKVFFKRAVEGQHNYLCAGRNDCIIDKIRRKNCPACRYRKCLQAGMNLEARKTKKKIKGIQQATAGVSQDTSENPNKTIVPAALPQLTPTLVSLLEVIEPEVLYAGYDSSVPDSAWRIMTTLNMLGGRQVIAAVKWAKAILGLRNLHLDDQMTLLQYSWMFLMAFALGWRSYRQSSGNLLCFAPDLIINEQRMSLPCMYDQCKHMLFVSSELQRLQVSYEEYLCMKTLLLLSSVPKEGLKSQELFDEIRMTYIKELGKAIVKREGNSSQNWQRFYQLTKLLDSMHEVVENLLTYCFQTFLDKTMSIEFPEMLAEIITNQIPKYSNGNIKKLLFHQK
Description: Clean female SD rats, body weight 200-250 g, are fed with certain quantity of food and freely drink water. The temperature is controlled at about 24° C. and an illumination cycle are for 11 hours by day and 13 hours at night. All animals are observed for 1 week before experiment. Incisions are made on two sides below arch of ribs on dorsal position of rats to extirpate adrenal glands. After operation, the rats are fed with physiological saline to maintain water-electrolyte balance. On the third day after operation, animals are acutely executed. The liver is taken out immediately and placed in ice cold buffer solution; the blood should be washed off as much as possible. Take certain quantity of tissue, add buffer solution (1:4), cut the tissue with scissors, intermittently homogenize the tissue under low temperature, centrifuge at 175000 g for 1 hour, and take out the supernatant liquid as reserve. […] Then carry out the competition inhibition experiment.

thymus gland cells = assay: Anti-glucocorticoid activity test, [3H]-TdR incorporation in rat thymus gland cells; assay type: cell-based; conditions: dexamethasone 6×10^−8 mol/L used singly
Description: Clean female SD rats, body weight 200-250 g, are fed with certain quantity of food and freely drink water. The temperature is controlled at about 24° C. and an illumination cycle are for 11 hours by day and 13 hours at night. All animals are observed for 1 week before experiment. Rats are anesthetized with ethyl ether. Incisions are made on two sides below costal arch of ribs on dorsal position of rats to extirpate adrenal glands. The rats are fed with physiological saline after operation. On the seventh day, animals are acutely executed. Take out thymus gland to place in to HBSS buffer solution, wash twice, remove connective tissue, cut the tissue with scissors, lightly grind with homogenizer, filter with three layers of gauze, and centrifuge the filtrate for 5 min (500 rpm). Wash the precipitated cells twice with HBSS, re-suspend the cells in RPMI1640 culture medium for cell count and cell survival rate determination, and adjust cell concentration to 1×10^7/ml. Determination of anti-glucocorticoid activity: Add tested compound into culture medium, reaction concentration 6×10^−[…], and place in 37° C. incubator for 3 hours. Add thymus gland cells to make cell concentration to become 10^7/ml and incubate at 37° C. for 3 hours. Add 1 μCi of label substance, mix, and incubate for 1 hour. Add 100 μl of ice cold 5% trichloroacetic acid to end the reaction. Place the test tube on ice and wash twice with 2 ml of ice cold 5% trichloroacetic acid and centrifuge twice, 500 rpm×5 min, Add 0.5 ml of 1N NaOH to dissolve the precipitated cells, pipet out the liquid, dry the residue with cotton stick, place into same scintillation bottle, and determine the radioactivity by liquid scintillation counter.
Calculate the incorporation rate of [^3H]-TdR:
In which: T=[^3H]-TdR count without presence of compound, Td=count with presence of compound, and NSB=non-specific adsorption.
Inhibition rate=100%−incorporation rate

[6] = 50% toxic concentration CC50, Average
[7] = 50% toxic concentration CC50, Experiment 1
[8] = 50% toxic concentration CC50, Experiment 2

Row | SMILES | EC50 ([2]; Average, PBMC) | EC50 ([2]; Experiment 1, PBMC) | EC50 ([2]; Experiment 2, PBMC) | CC50 at 96 h [3, 6] | CC50 at 96 h [3, 7] | CC50 at 96 h [3, 8] | EC50 ([4]; Average) | EC50 ([4]; Experiment 1) | EC50 ([4]; Experiment 2) | other results
1 | CC#C[C@]1(O)CC[C@H]2[C@@H]3CCC4=CC(=O)CCC4=C3[C@@H](c3ccc(N(C)C)cc3)C[C@@]21C [Mifepristone, mifepristone] | 12.4 µg/mL (≈ 28.8 µM) | 12.4 µg/mL (≈ 28.9 µM) | 12.4 µg/mL (≈ 28.8 µM) | 89.9 µg/mL (≈ 209 µM) | 105 µg/mL (≈ 244 µM) | 74.7 µg/mL (≈ 174 µM) | 10.1 µg/mL (≈ 23.5 µM) | 10.4 µg/mL (≈ 24.2 µM) | 9.84 µg/mL (≈ 22.9 µM) | CC50 at 96 h ([1]; 50% toxic concentration CC50, Average, PBMC, 018a): 83.6 µg/mL (≈ 195 µM); CC50 at 96 h ([1]; 50% toxic concentration CC50, Experiment 1, PBMC, 018a): 69.4 µg/mL (≈ 162 µM); CC50 at 96 h ([1]; 50% toxic concentration CC50, Experiment 2, PBMC, 018a): 97.8 µg/mL (≈ 228 µM)
2 | Cc1cn([C@H]2C[C@H](N=[N+]=[N-])[C@@H](CO)O2)c(=O)[nH]c1=O [AZT, zidovudine] | < 0.0064 µg/mL | < 0.0061 µg/mL | < 0.0064 µg/mL | 74.3 µg/mL (≈ 278 µM) | 70.7 µg/mL (≈ 265 µM) | 77.9 µg/mL (≈ 291 µM) | 0.054 µg/mL (≈ 0.202 µM) | 0.047 µg/mL (≈ 0.176 µM) | 0.061 µg/mL (≈ 0.228 µM) | CC50 at 96 h ([1]; 50% toxic concentration CC50): 58.8 µg/mL (≈ 220 µM); SI ([2]; SI=CC50/EC50, Average): 10275.78; SI ([2]; SI=CC50/EC50, Experiment 1): 9193.75; SI ([2]; SI=CC50/EC50, Experiment 2): 11357.81; SI ([4]; Average): 1390.87; SI ([4]; Experiment 1): 1504.68; SI ([4]; Experiment 2): 1277.05
3 | C[C@@H]1C[C@H]2[C@@H]3CCC4=CC(=O)C=C[C@]4(C)[C@@]3(F)[C@@H](O)C[C@]2(C)[C@@]1(O)C(=O)CO [Dexamethasone, dexamethasone] | – | – | – | – | – | – | – | – | – | inhibition at 0.0008 µM [5]: 14.7 ± 7.34%; inhibition at 0.0016 µM [5]: 10.4 ± 6.11%; inhibition at 0.004 µM [5]: 24.8 ± 5.92%; inhibition at 0.02 µM [5]: 39.4 ± 4.83%; inhibition at 0.1 µM [5]: 60.4 ± 5.67%; inhibition at 0.5 µM [5]: 89.2 ± 8.56%; Incorporation rate of [3H]-TdR (thymus gland cells): 43.2%±3.7
